In US20070275925A1, “ASTHMA DIAGNOSIS AND THERAPY” (REGENTS OF THE UNIVERSITY OF CALIFORNIA, priority 2006, published 2007):
“Also recorded” adds a separate entry of the source.

What was measured:
[1] = system: epithelial brushings; assay: Microarray gene expression in epithelial brushings, randomized placebo-controlled trial of inhaled fluticasone; type: in vivo, human
Description: In three cross sectional studies and a clinical trial, epithelial brushings were collected by bronchoscopy from 42 subjects with asthma, 16 current smokers without asthma, and 28 healthy controls. Cross-sectional studies comprised 2 visits, the first for characterization and the second for bronchoscopy. The clinical trial was a 10 week, randomized, double-blind, placebo-controlled trial specifically designed to determine the effects of inhaled fluticasone (500 μg twice daily) on airway gene expression and to relate gene expression changes to improvements in lung function (FIG. 1). Bronchoscopy was performed at baseline and repeated 1 week after starting study drug. Thirty-five subjects had adequate baseline bronchoscopy and 32 had RNA available from epithelial brushings at both bronchoscopies. Lung function was measured at intervals over the 8-week treatment period. Epithelial RNA from a subset of the subjects studied by microarray here have been used in other PCR based gene expression studies performed by our group.^4 Additional information is provided in the supplementary appendix.
Brushings yielded 1,300,000±800,000 cells of which 97±3% were epithelial. For microarray analysis, […] total epithelial RNA was amplified using NuGen Ovation RNA amplification system. Then 2.75 μg sscDNA was hybridized to Affymetrix U133 plus 2.0 arrays (>54,000 probe sets coding for 38,500 genes). Array images were analyzed using Affymetrix GeneChip Expression Analysis Software. Bioconductor^5 was used for quality control (affyPLM algorithm), preprocessing (RMA algorithm), cluster analysis, and linear modeling.^5-7 Raw array data are available from the Gene Expression Omnibus public database (http://www.ncbi.nlm.nih.gov/geo/, accession number pending). Selected microarray findings were confirmed by real-time PCR, enzyme linked immunosorbent assay (ELISA) or immunohistochemistry. In vitro studies of the effects of interleukin-13 (IL-13) on expression of selected genes were performed using primary airway epithelial cells grown at an air-liquid interface (additional detail in supplementary appendix).
For between group comparisons, t-test, rank-sum test or ANOVA followed by pair-wise analyses with Sidak correction were used as appropriate. Correlation of mRNA copy number by PCR (log transformed for normality) and lung function was performed using Pearson correlation. STATA version 9 software was used (StataCorp, College Station Tex.), and p<0.05 was taken as statistically significant. In microarray analyses, differential gene expression was assessed using linear models (controlling for age and gender). For between group comparisons, a Bonferroni corrected p-value<0.05 was used to identify differentially expressed genes. For the placebo-controlled trial, changes in gene expression from baseline to post-intervention were calculated and the mean changes in the fluticasone and placebo groups were compared. A two-fold change (either higher or lower in the fluticasone group as compared to placebo), was used to identify differentially expressed genes. Microarray analyses were performed using Bioconductor open source software^5 in the R statistical environment.
Protocol: This was a 6 visit, 10 week, randomized, double-blind, placebo-controlled trial specifically designed to determine the effects of inhaled fluticasone on airway gene expression and to relate those gene expression changes to improvements in lung function. After a one-week run-in/characterization period, subjects were randomized to receive 2 puffs BID of fluticasone propionate (250 μg/puff) or matching placebo for 8 weeks, followed by a one week run-out. Subjects were randomized in blocks designed to yield a greater number of subjects randomized to fluticasone as compared to placebo in order to maximize our ability to relate gene expression to lung function improvements within the intervention group. […]

[2] = Methacholine responsiveness (PC20) in the clinical trial; type: in vivo, human; conditions: 4 and 8 weeks
Description: Protocol: This was a 6 visit, 10 week, randomized, double-blind, placebo-controlled trial specifically designed to determine the effects of inhaled fluticasone on airway gene expression and to relate those gene expression changes to improvements in lung function. After a one-week run-in/characterization period, subjects were randomized to receive 2 puffs BID of fluticasone propionate (250 μg/puff) or matching placebo for 8 weeks, followed by a one week run-out. Subjects were randomized in blocks designed to yield a greater number of subjects randomized to fluticasone as compared to placebo in order to maximize our ability to relate gene expression to lung function improvements within the intervention group. […] Spirometry was measured at baseline, before both bronchoscopies, at 4 and 8 weeks after starting study medication, and after the one week run-out according to American Thoracic Society criteria using a dry rolling-seal spirometer (Model VRS2000, PDS Instrumentation, S&M Instrument Co., Doylestown, Pa.). Methacholine responsiveness was measured at baseline and at 4 and 8 weeks after starting study medication using a five-breath dosimeter method (modified from Chai et al).^5

[3] = fluticasone group as compared to placebo group, baseline to 1 week
[4] = fluticasone group, baseline to 1 week, asthmatics

SMILES: CCC(=O)O[C@]1(C(=O)SCF)[C@H](C)C[C@H]2[C@@H]3C[C@H](F)C4=CC(=O)C=C[C@]4(C)[C@@]3(F)[C@@H](O)C[C@@]21C [fluticasone, fluticasone propionate]
- CST1 gene expression in airway epithelial brushing from asthmatics treated with inhaled fluticasone ([1]; additional gene profiling experiments): upregulated
- CST1 reduction by array ([1]; fluticasone arm as compared to the placebo arm): 2 fold
- PRR4 gene expression change with fluticasone ([1]; fluticasone arm as compared to the placebo arm, asthmatic airway epithelial cells): only modestly reduced; also recorded: no significant change
- Fold-difference Combined, 227061_at (CDNA FLJ44429 fis) [1, 3]: 2.0 fold
- Fold-difference Combined, 228854_at (Transcribed locus) [1, 3]: 10.5 fold
- Fold-difference Combined, 228858_at (Transcribed locus) [1, 3]: 2.8 fold
- Fold-difference Combined, 230782_at (CDNA FLJ33419 fis) [1, 3]: 2.2 fold
- Fold-difference Combined, 231262_at (Transcribed locus) [1, 3]: 2.8 fold
- Fold-difference Combined, 244677_at [1, 3]: 2.3 fold
- Fold-difference Combined, C6 [1, 3]: 2.2 fold
- Fold-difference Combined, C14orf78 [1, 3]: 2.1 fold
- Fold-difference Combined, CLCA1 [1, 3]: −2.4 fold
- Fold-difference Combined, CST1 [1, 3]: −2.1 fold
- Fold-difference Combined, FKBP51 [1, 3]: 4.4 fold
- Fold-difference Combined, FXYD1 [1, 3]: 2.1 fold
- Fold-difference Combined, GAS1 [1, 3]: 3.3 fold
- Fold-difference Combined, GPR109B [1, 3]: 2.4 fold
- Fold-difference Combined, HBA2 [1, 3]: 2.7 fold
- Fold-difference Combined, HBB [1, 3]: 2.1 fold
- Fold-difference Combined, HIF3A [1, 3]: 2.7 fold
- Fold-difference Combined, KLF9 [1, 3]: 2.4 fold
- Fold-difference Combined, LOC157381 [1, 3]: 2.1 fold
- Fold-difference Combined, MUC13 [1, 3]: −2.0 fold
- Fold-difference Combined, PHACTR3 [1, 3]: 3.2 fold
- Fold-difference Combined, POSTN [1, 3]: −2.1 fold
- Fold-difference Combined, PPP1R16B [1, 3]: 2.4 fold
- Fold-difference Combined, SERPINB2 [1, 3]: −2.9 fold
- Fold-difference Combined, TFCP2L1 [1, 3]: 3.0 fold
- Fold-difference Combined, TSC22D3 [1, 3]: 2.5 fold
- Fold-difference Combined, TU3A [1, 3]: 2.8 fold
- Fold-difference Combined, UBD [1, 3]: −2.1 fold
- Fold-difference Combined, UBE2H [1, 3]: 2.1 fold
- Fold-difference Combined, WIPI49 [1, 3]: 2.0 fold
- Fold-difference Flovent, 227061_at (CDNA FLJ44429 fis) [1, 4]: 1.6 fold
- Fold-difference Flovent, 228854_at (Transcribed locus) [1, 4]: 7.3 fold
- Fold-difference Flovent, 228858_at (Transcribed locus) [1, 4]: 2.4 fold
- Fold-difference Flovent, 230782_at (CDNA FLJ33419 fis) [1, 4]: 2.1 fold
- Fold-difference Flovent, 231262_at (Transcribed locus) [1, 4]: 2.4 fold
- Fold-difference Flovent, 244677_at [1, 4]: 1.8 fold
- Fold-difference Flovent, C6 [1, 4]: 1.6 fold
- Fold-difference Flovent, C14orf78 [1, 4]: 1.8 fold
- Fold-difference Flovent, CLCA1 [1, 4]: −2.7 fold
- Fold-difference Flovent, CST1 [1, 4]: −2.4 fold
- Fold-difference Flovent, FKBP51 [1, 4]: 3.6 fold
- Fold-difference Flovent, FXYD1 [1, 4]: 1.4 fold
- Fold-difference Flovent, GAS1 [1, 4]: 2.7 fold
- Fold-difference Flovent, GPR109B [1, 4]: 1.9 fold
- Fold-difference Flovent, HBA2 [1, 4]: 3.0 fold
- Fold-difference Flovent, HBB [1, 4]: 2.5 fold
- Fold-difference Flovent, HIF3A [1, 4]: 2.7 fold
- Fold-difference Flovent, KLF9 [1, 4]: 2.2 fold
- Fold-difference Flovent, LOC157381 [1, 4]: 1.7 fold
- Fold-difference Flovent, MUC13 [1, 4]: −1.6 fold
- Fold-difference Flovent, PHACTR3 [1, 4]: 3.1 fold
- Fold-difference Flovent, POSTN [1, 4]: −2.1 fold
- Fold-difference Flovent, PPP1R16B [1, 4]: 2.1 fold
- Fold-difference Flovent, SERPINB2 [1, 4]: −2.5 fold
- Fold-difference Flovent, TFCP2L1 [1, 4]: 3.1 fold
- Fold-difference Flovent, TSC22D3 [1, 4]: 2.0 fold
- Fold-difference Flovent, TU3A [1, 4]: 2.3 fold
- Fold-difference Flovent, UBD [1, 4]: −2.0 fold
- Fold-difference Flovent, UBE2H [1, 4]: 2.0 fold
- Fold-difference Flovent, WIPI49 [1, 4]: 1.7 fold
- PC20 methacholine improvements, fluticasone versus placebo [2]: not statistically different; also recorded: no statistically significant differences
